The values below come from US4946957A, “Anti-tumor DC-52 derivatives” (Kyowa Hakko Kogyo Co., Ltd., priority 1986, dated 1990).

Where two headings read alike, the source gives them in different places. Some results are limits rather than exact numbers.

Series [1] concerns lymphocytic leukemia P-388. The experiment in a line: Anti-tumor activity against lymphocytic leukemia P-388 (i.p. implanted, single i.p. dose). The following applies: Mus musculus, P388, ip, read-out: T/C. The series is classed as in vivo, male CDF mice. On the procedure:
The experiment was carried out in the following manner.
Five male CDF mice each having a weight of about 22 g were used for each group as test animals, and 1×10^6 cells of lymphocytic leukemia P-388 tumor were implanted intraperitoneally into the test animals. After 24 hours, 0.2 ml of phosphate-buffered physiological saline containing a test compound was administered once intraperitoneally. The life-prolongingeffect of the compound was represented by T/C.

The nature of series [2]: Acute toxicity (single i.p. administration). Particulars: mouse, in vivo, ip, ddy mice, method of Behrens-Kolber. On the procedure: Five ddy mice were used for each group as test animals, and each test compound was administered once intraperitoneally to the respective groups of animals. LD50 was calculated from the death-rate of each group according to the method of Behrens-Kolber.

For a further series, the system named is a variety of bacteria. Particulars: in words; Japanese Published Unexamined Patent Application No. 170189/82; cited from earlier work.
Series [3] has as its system lymphocytic leukemia P-388. Particulars: in words; Japanese Published Unexamined Patent Application No. 170189/82; cited from earlier work.
For series [4] the following is noted: in words; Japanese Published Unexamined Patent Application No. 210086/84; cited from earlier work.
Where [5] appears, read: dose 12.5 mg/kg, single i.p., 24 hours after implantation of 1×10^6 P-388 cells, life-prolonging effect.
Where [6] appears, read: dose 25 mg/kg, single i.p., 24 hours after implantation of 1×10^6 P-388 cells, life-prolonging effect.

The LD50 is the dose expected to kill half of the subjects tested. Low values mean a more toxic substance, high ones a less toxic substance. In the case of `COc1ccc(Cl)c2c1C(CO)N1C(C#N)C3CC(C(=O)O)C(C1C2)N3C` (stereo not shown) [Compound 1], the response vs control in vivo at 12.5 mg/kg in series [1] (24 h) is 123%. Also, the LD50 in series [2] was found to be 50 mg/kg. `COc1ccc(Cl)c2c1C1COC3C4CC(C(=O)O)C(C(C2)N13)N4C` (stereo not shown) [Compound 2]: the response vs control in vivo at 12.5 mg/kg in series [1] (setting [5]) turned out to be 140%. The compound `COc1ccc(Br)c2c1C(CO)N1C(C#N)C3CC(C(=O)O)C(C1C2)N3C` (stereo not shown) [Compound 3] showed an LD50 in series [2] of 50 mg/kg. For `COc1ccc(Br)c2c1C1COC3C4CC(C(=O)O)C(C(C2)N13)N4C` (stereo not shown) [Compound 4], the response vs control in vivo at 12.5 mg/kg in series [1] (setting [5]) was determined as 150%. On to `COc1ccc(I)c2c1C(CO)N1C(C#N)C3CC(C(=O)O)C(C1C2)N3C` (stereo not shown) [Compound 5], for which the response vs control in vivo at 50 mg/kg in series [1] (24 h) turned out to be 131%. In series [2], the LD50 came out at 100 mg/kg.

Turning to `COc1ccc(I)c2c1C1COC3C4CC(C(=O)O)C(C(C2)N13)N4C` (stereo not shown) [Compound 6], in series [1] (setting [6]), the response vs control in vivo at 25 mg/kg is 124%. For `COc1ccc(C=O)c2c1C(CO)N1C(C#N)C3CC(C(=O)O)C(C1C2)N3C` (stereo not shown) [Compound 7], the response vs control in vivo at 200 mg/kg in series [1] (dose 200 mg/kg, single i.p., 24 hours after implantation of 1×10^6 P-388 cells, life-prolonging effect) was 138%. On to `COc1ccc(C#N)c2c1C(CO)N1C(C#N)C3CC(C(=O)O)C(C1C2)N3C` (stereo not shown) [Compound 9], for which, in series [1] (24 h), the response vs control in vivo at 25 mg/kg stood at 140%. Moreover, the LD50 in series [2] was over 100 mg/kg. `COc1ccc(C#N)c2c1C1COC3C4CC(C(=O)O)C(C(C2)N13)N4C` (stereo not shown) [Compound 10] displayed an LD50 in series [2] of over 50 mg/kg. On to `COc1ccc(O)c2c1C(CO)N1C(C#N)C3CC(C(=O)O)C(C1C2)N3C` (stereo not shown) [Compound 11], for which the response vs control in vivo at 25 mg/kg in series [1] (setting [6]) worked out at 142%. Consider `COc1cccc2c1C1COC3C4CC(C(=O)O)C(C(C2)N13)N4C` (stereo not shown) [DC-52], for which the antibacterial activity entry in the series on a variety of bacteria is “shows antibacterial activity against a variety of bacteria”. For the same compound, the “anti-tumor activity against lymphocytic leukemia P-388 and the like” value in series [3] was “has anti-tumor activity against lymphocytic leukemia P-388 and the like”. Consider `COc1cccc2c1C(CO)N1C(C#N)C3CC(C(=O)O)C(C1C2)N3C` (stereo not shown) [DX-52-1], for which the anti-tumor activity result in series [4] is listed as “having anti-tumor activity”.
